Measurements published in patent US20240182453A1, “NOVEL SUBSTITUTED PYRAZINE-CARBOXAMIDE DERIVATIVES” (Boehringer Ingelheim International GmbH, priority 2022, published 2024).

The molecules below were run against human metabotropic Glutamate 4 receptor (mGluR4) (Homo sapiens (Human), UniProt Q14833) (assay: Assay A: in vitro testing of mGluR4 potency (glutamate-induced cAMP lowering, HTRF cAMP)). Conditions: HEK293 cells overexpressing human mGluR4; 10 uM L-glutamic acid, 1 uM forskolin; compounds of the present invention.
Chain of human metabotropic Glutamate 4 receptor (mGluR4) (Q14833 33-912): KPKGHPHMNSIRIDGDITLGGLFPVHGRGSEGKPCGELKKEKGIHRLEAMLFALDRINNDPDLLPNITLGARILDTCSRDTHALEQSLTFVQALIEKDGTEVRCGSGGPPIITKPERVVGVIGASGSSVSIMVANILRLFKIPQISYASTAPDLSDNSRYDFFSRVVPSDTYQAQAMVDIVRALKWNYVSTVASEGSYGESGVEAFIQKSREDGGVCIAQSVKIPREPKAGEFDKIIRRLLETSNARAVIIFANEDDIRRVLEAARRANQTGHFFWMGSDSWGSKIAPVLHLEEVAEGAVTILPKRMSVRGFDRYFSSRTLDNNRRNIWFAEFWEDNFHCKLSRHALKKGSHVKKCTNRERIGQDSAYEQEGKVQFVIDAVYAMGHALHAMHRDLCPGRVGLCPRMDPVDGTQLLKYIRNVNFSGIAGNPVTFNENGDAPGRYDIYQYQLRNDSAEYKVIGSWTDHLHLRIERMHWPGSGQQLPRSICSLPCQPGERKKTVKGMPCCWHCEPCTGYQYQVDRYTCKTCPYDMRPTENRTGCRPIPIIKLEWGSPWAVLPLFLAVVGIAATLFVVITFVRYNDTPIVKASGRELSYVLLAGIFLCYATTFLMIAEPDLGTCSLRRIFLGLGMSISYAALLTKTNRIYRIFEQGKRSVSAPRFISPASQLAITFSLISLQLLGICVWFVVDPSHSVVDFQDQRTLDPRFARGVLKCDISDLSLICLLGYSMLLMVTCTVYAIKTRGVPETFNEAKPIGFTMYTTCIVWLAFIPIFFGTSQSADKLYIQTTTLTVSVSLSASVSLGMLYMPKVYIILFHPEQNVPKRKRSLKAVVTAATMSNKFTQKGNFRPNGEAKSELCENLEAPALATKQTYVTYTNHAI
Format: cell-based
Procedure, shortened: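 HEK293 cells overexpressing human mGluR4 treated 30 min at room temperature with compound plus 10 uM L-glutamate, 1 uM forskolin, 0.5 mM IBMX, 0.1% BSA, 1% DMSO. cAMP read by HTRF (665/615 nm ratio), normalized to glutamate (100%) and no-glutamate (0%) controls as percent of control.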
Work on `Cc1cnc(C(=O)N[C@H](c2nc3cc(Cl)ccc3n2C2CC2)C2CC2)cn1` [Example 101, N-[(S)-(5-chloro-1-cyclopropyl-1H-1,3-benzodiazol-2-yl)(cyclopropyl)methyl]-5-methylpyrazine-2-carboxamide] yielded an IC50 of 9 nM.
`COCCn1c([C@@H](NC(=O)c2cnc(C(F)F)cn2)[C@H]2CCOC2)nc2cc(C(F)(F)F)ccc21` [Example 102, 5-(difluoromethyl)-N-[(S)-[1-(2-methoxyethyl)-5-(trifluoromethyl)-1H-1,3-benzodiazol-2-yl][(3R)-oxolan-3-yl]methyl]pyrazine-2-carboxamide] showed an IC50 of 13 nM.
Molecule `COCCn1c([C@@H](NC(=O)c2cnc(C)cn2)[C@H]2CCCOC2)nc2cc(C(F)(F)F)ccc21` [Example 103, N-[(S)-[1-(2-methoxyethyl)-5-(trifluoromethyl)-1H-1,3-benzodiazol-2-yl][(3R)-oxan-3-yl]methyl]-5-methylpyrazine-2-carboxamide] has an IC50 of 8 nM.
Molecule `CCn1c([C@@H](NC(=O)c2cnc(C)cn2)C(C)(C)O)nc2cc(C(F)(F)F)ccc21` [Example 104, N-[(1R)-1-[1-ethyl-5-(trifluoromethyl)-1H-1,3-benzodiazol-2-yl]-2-hydroxy-2-methylpropyl]-5-methylpyrazine-2-carboxamide] has an IC50 of 17 nM.
Molecule `Cc1cnc(C(=O)N[C@@H](CC2CC2)c2nc3cc(OC(F)(F)F)ccc3n2C)cn1` [Example 105, N-[(1S)-2-cyclopropyl-1-[1-methyl-5-(trifluoromethoxy)-1H-1,3-benzodiazol-2-yl]ethyl]-5-methylpyrazine-2-carboxamide] has an IC50 of 8 nM.
With `Cn1c([C@H](CC2CC2)NC(=O)c2cnc(C(F)F)cn2)nc2cc(Cl)ccc21` [Example 106, N-[(1S)-1-(5-chloro-1-methyl-1H-1,3-benzodiazol-2-yl)-2-cyclopropylethyl]-5-(difluoromethyl)pyrazine-2-carboxamide] the IC50 was 11 nM.
For `Cc1cnc(C(=O)N[C@H](c2nc3c(Cl)c(F)ccc3n2C)C2CC2)cn1` [Example 107, N-[(S)-(4-chloro-5-fluoro-1-methyl-1H-1,3-benzodiazol-2-yl)(cyclopropyl)methyl]-5-methylpyrazine-2-carboxamide], the IC50 was 13 nM.
In the case of `O=C(N[C@@H](CC1CC1)c1nc2cc(Cl)ccc2n1CCOC(F)F)c1cnc(C(F)F)cn1` [Example 108, N-[(1S)-1-{5-chloro-1-[2-(difluoromethoxy)ethyl]-1H-1,3-benzodiazol-2-yl}-2-cyclopropylethyl]-5-(difluoromethyl)pyrazine-2-carboxamide], the IC50 is reported as 6 nM.
With `CCc1c(Br)ccc2c1nc([C@@H](NC(=O)c1cnc(C)cn1)C(C)(C)O)n2C` [Example 109, N-[(1R)-1-(5-bromo-4-ethyl-1-methyl-1H-1,3-benzodiazol-2-yl)-2-hydroxy-2-methylpropyl]-5-methylpyrazine-2-carboxamide] the IC50 was 6 nM.
For `Cc1cnc(C(=O)N[C@H](c2nc3cc(F)c(Br)cc3n2C)C2CC2)cn1` [Example 110, N-[(S)-(6-bromo-5-fluoro-1-methyl-1H-1,3-benzodiazol-2-yl)(cyclopropyl)methyl]-5-methylpyrazine-2-carboxamide], the IC50 was 14 nM.
In the case of `O=C(N[C@@H](CC1CC1)c1nc2cc(F)c(F)cc2n1CCOC(F)F)c1cnc(C(F)F)cn1` [Example 111, N-[(1S)-2-cyclopropyl-1-{1-[2(difluoromethoxy)ethyl]-5,6-difluoro-1H-1,3-benzodiazol-2-yl}ethyl]-5-(difluoromethyl)pyrazine-2-carboxamide], the IC50 is reported as 10 nM.
Work on `COc1c(Cl)ccc2c1nc([C@@H](NC(=O)c1cnc(C)cn1)C1CC1)n2C` [Example 112, N-[(S)-(5-chloro-4-methoxy-1-methyl-1H-1,3-benzodiazol-2-yl)(cyclopropyl)methyl]-5-methylpyrazine-2-carboxamide] yielded an IC50 of 15 nM.
With `Cn1c([C@@H](NC(=O)c2cnc(C(F)F)cn2)[C@H]2CCCO2)nc2cc(OC(F)(F)F)ccc21` [Example 113, 5-(difluoromethyl)-N-[(R)-[1-methyl-5-(trifluoromethoxy)-1H-1,3-benzodiazol-2-yl][(2R)-oxolan-2-yl]methyl]pyrazine-2-carboxamide] the IC50 was 17 nM.
In the case of `Cn1c(C(NC(=O)c2cnc(C(F)F)cn2)C2CCCO2)nc2cc(OC(F)(F)F)ccc21` (stereo not drawn) [Example 113-1, 5-(difluoromethyl)-N-{[1-methyl-5-(trifluoromethoxy)-1H-1,3-benzodiazol-2-yl](oxolan-2-yl)methyl}pyrazine-2-carboxamide], the IC50 is reported as 45 nM.
`O=C(N[C@@H](CC1CC1)c1nc2cc(F)ccc2n1C1CC1)c1cnc(C(F)F)cn1` [Example 114, N-[(1S)-2-cyclopropyl-1-(1-cyclopropyl-5-fluoro-1H-1,3-benzodiazol-2-yl)ethyl]-5-(difluoromethyl)pyrazine-2-carboxamide] gave an IC50 of 15 nM.
In the case of `Cc1cnc(C(=O)N[C@H](c2nc3cc(OC(F)(F)F)ccc3n2C2CC2)C2CC2)cn1` [Example 115, N-[(S)-cyclopropyl[1-cyclopropyl-5-(trifluoromethoxy)-1H-1,3-benzodiazol-2-yl]methyl]-5-methylpyrazine-2-carboxamide], the IC50 is reported as 9 nM.
Molecule `Cc1cnc(C(=O)N[C@H](c2nc3cc(C(F)(F)F)ccc3n2C2CC2)C2CC2)cn1` [Example 116, N-[(S)-cyclopropyl[1-cyclopropyl-5-(trifluoromethyl)-1H-1,3-benzodiazol-2-yl]methyl]-5-methylpyrazine-2-carboxamide] has an IC50 of 13 nM.
`O=C(N[C@@H](CC1CC1)c1nc2cc(Cl)ccc2n1C1CC1)c1cnc(C(F)F)cn1` [Example 117, N-[(1S)-1-(5-chloro-1-cyclopropyl-1H-1,3-benzodiazol-2-yl)-2-cyclopropylethyl]-5-(difluoromethyl)pyrazine-2-carboaxamide] showed an IC50 of 8 nM.
For `O=C(N[C@@H](CC1CC1)c1nc2cc(F)c(F)cc2n1C1CC1)c1cnc(C(F)F)cn1` [Example 118, N-[(1S)-2-cyclopropyl-1-(1-cyclopropyl-5,6-difluoro-1H-1,3-benzodiazol-2-yl)ethyl]-5-(difluoromethyl)pyrazine-2-carboxamide], the IC50 was 14 nM.
Molecule `CO[C@H](C)[C@H](NC(=O)c1cnc(C)cn1)c1nc2cc(OC(F)(F)F)ccc2n1CCOC1CC1` [Example 119, N-[(1R,2R)-1-[1-(2-cyclopropoxyethyl)-5-(trifluoromethoxy)-1H-1,3-benzodiazol-2-yl]-2-methoxypropyl]-5-methylpyrazine-2-carboxamide] has an IC50 of 1 nM.
`CO[C@H](C)[C@H](NC(=O)c1cnc(C)cn1)c1nc2cc(OC(F)(F)F)ccc2n1CCOC1CCC1` [Example 120, N-[(1R,2R)-1-[1-(2-cyclobutoxyethyl)-5-(trifluoromethoxy)-1H-1,3-benzodiazol-2-yl]-2-methoxypropyl]-5-methylpyrazine-2-carboxamide] gave an IC50 of 1 nM.
For `COCCn1c([C@@H](NC(=O)c2cnc(C(F)F)cn2)[C@@H](C)OC)nc2cc(OC(F)(F)F)ccc21` [Example 121, 5-(difluoromethyl)-N-[(1R,2R)-2-methoxy-1-[1-(2-methoxyethyl)-5-(trifluoromethoxy)-1H-1,3-benzodiazol-2-yl]propyl]pyrazine-2-carboxamide], the IC50 was 1 nM.
With `Cc1cnc(C(=O)N[C@H](c2nc3c(C4CC4)c(Br)ccc3n2C)C2CC2)cn1` [Example 122, N-[(S)-(5-bromo-4-cyclopropyl-1-methyl-1H-1,3-benzodiazol-2-yl)(cyclopropyl)methyl]-5-methylpyrazine-2-carboxamide] the IC50 was 1 nM.
Molecule `CO[C@H](C)[C@H](NC(=O)c1cnc(C)cn1)c1nc2cc(OC(F)(F)F)ccc2n1C(C)C` [Example 123, N-[(1R,2R)-2-methoxy-1-[1-(propan-2-yl)-5-(trifluoromethoxy)-1H-1,3-benzodiazol-2-yl]propyl]-5-methylpyrazine-2-carboxamide] has an IC50 of 3 nM.
Molecule `COCCn1c([C@@H](NC(=O)c2cnc(C(F)(F)F)cn2)[C@@H](C)OC)nc2cc(OC(F)(F)F)ccc21` [Example 124, N-[(1R,2R)-2-methoxy-1-[1-(2-methoxyethyl)-5-(trifluoromethoxy)-1H-1,3-benzodiazol-2-yl]propyl]-5-(trifluoromethyl)pyrazine-2-carboxamide] has an IC50 of 4 nM.
`Cc1cnc(C(=O)N[C@@H](CC2CC2)c2nc3cc(Cl)ccc3n2CCOC(F)F)cn1` [Example 125, N-[(1S)-1-{5-chloro-1-[2-(difluoromethoxy)ethyl]-1H-1,3-benzodiazol-2-yl}-2-cyclopropylethyl]-5-methylpyrazine-2-carboxamide] gave an IC50 of 7 nM.
For `COCCn1c([C@@H](NC(=O)c2cnc(C)cn2)C(C)(C)O)nc2cc(C(F)(F)F)ccc21` [Example 126, N-[(1R)-2-hydroxy-1-[1-(2-methoxyethyl)-5-(trifluoromethyl)-1H-1,3-benzodiazol-2-yl]-2-methylpropyl]-5-methylpyrazine-2-carboxamide], the IC50 was 14 nM.
`CCn1c([C@@H](NC(=O)c2cnc(C)cn2)C2CC(F)(F)C2)nc2cc(F)ccc21` [Example 127, N-[(S)-(3,3-difluorocyclobutyl)(1-ethyl-5-fluoro-1H-1,3-benzodiazol-2-yl)methyl]-5-methylpyrazine-2-carboxamide] gave an IC50 of 8 nM.
Work on `Cc1cnc(C(=O)N[C@@H](CC2CC2)c2nc3cc(F)c(F)cc3n2CCOC(F)F)cn1` [Example 128, N-[(1S)-2-cyclopropyl-1-{1-[2-(difluoromethoxy)ethyl]-5,6-difluoro-1H-1,3-benzodiazol-2-y1}ethyl]-5-methylpyrazine-2-carboxamide] yielded an IC50 of 8 nM.
In the case of `COC[C@@H](C)n1c([C@@H](NC(=O)c2cnc(C)cn2)[C@@H](C)OC)nc2cc(OC(F)(F)F)ccc21` [Example 129, N-[(1R,2R)-2-methoxy-1-{1-[(2R)-1-methoxypropan-2-yl]-5-(trifluoromethoxy)-1H-1,3-benzodiazol-2-yl}propyl]-5-methylpyrazine-2-carboxamide], the IC50 is reported as 9 nM.
